# Patent US8349844B2, “Substituted pyrazolo [1,5-A] pyrimidines as metabotropic glutamate antagonists” (Hoffmann-La Roche Inc., priority 2005, dated 2013)
row,SMILES,melting point
1,"NS(=O)(=O)c1cccc(-c2noc(-c3cnn4ccc(-c5ccc(Cl)cc5)nc34)n2)c1 [Example 49, 3-{5-[5-(4-Chloro-phenyl)-pyrazolo[1,5-a]pyrimidin-3-yl]-[1,2,4]oxadiazol-3-yl}-benzenesulfonamide]",223 °C
2,"NS(=O)(=O)c1ccc(-c2noc(-c3cnc4ccc(-c5ccc(C(F)(F)F)cc5)cn34)n2)cc1 [Example 50, 4-{5-[6-(4-Trifluoromethyl-phenyl)-imidazo[1,2-a]pyridin-3-yl]-[1,2,4]oxadiazol-3-yl}-benzenesulfonamide]",288 °C
3,"NS(=O)(=O)c1cccc(-c2noc(-c3cnc4ccc(-c5ccc(C(F)(F)F)cc5)cn34)n2)c1 [Example 51, 3-{5-[6-(4-Trifluoromethyl-phenyl)-imidazo[1,2-a]pyridin-3-yl]-[1,2,4]oxadiazol-3-yl}-benzenesulfonamide]",288 °C
4,"NS(=O)(=O)c1ccc(-c2noc(-c3cnn4ccc(-c5ccc(C(F)(F)F)cc5)nc34)n2)s1 [Example 52, 5-{5-[5-(4-Trifluoromethyl-phenyl)-pyrazolo[1,5-a]pyrimidin-3-yl]-[1,2,4]oxadiazol-3-yl}-thiophene-2-sulfonic acid amide]",251 °C
5,"NS(=O)(=O)c1cccc(-c2noc(-c3cnn4ccc(-c5ccc(C(F)(F)F)cc5)nc34)n2)c1 [Example 53, 3-{5-[5-(4-Trifluoromethyl-phenyl)-pyrazolo[1,5-a]pyrimidin-3-yl]-[1,2,4]oxadiazol-3-yl}-benzenesulfonamide]",270 °C
6,"NS(=O)(=O)c1ccc(-c2noc(-c3cnc4ccc(-c5ccc(C(F)(F)F)cc5)cn34)n2)s1 [Example 54, 5-{5-[6-(4-Trifluoromethyl-phenyl)-imidazo[1,2-a]pyridin-3-yl]-[1,2,4]oxadiazol-3-yl}-thiophene-2-sulfonic acid amide]",280 °C
7,"NS(=O)(=O)c1ccc(-c2noc(-c3cnc4ccc(-c5ccc(Cl)cc5)cn34)n2)s1 [Example 55, 5-{5-[6-(4-Chloro-phenyl)-imidazo[1,2-a]pyridin-3-yl]-[1,2,4]oxadiazol-3-yl}-thiophene-2-sulfonic acid amide]",263 °C
8,"Nc1ccc(-c2noc(-c3cnc4ccc(-c5ccc(C(F)(F)F)cc5)cn34)n2)cn1 [Example 56, 5-{5-[6-(4-Trifluoromethyl-phenyl)-imidazo[1,2-a]pyridin-3-yl]-[1,2,4]oxadiazol-3-yl}-pyridin-2-ylamine]",258 °C
9,"Nc1ccc(-c2noc(-c3cnc4ccc(-c5ccc(Cl)cc5)cn34)n2)cn1 [Example 57, 5-{5-[6-(4-Chloro-phenyl)-imidazo[1,2-a]pyridin-3-yl]-[1,2,4]oxadiazol-3-yl}-pyridin-2-ylamine]",273 °C
10,"Nc1cc(-c2noc(-c3cnn4c(C(F)(F)F)cc(-c5ccc(C(F)(F)F)cc5)nc34)n2)ccn1 [Example 58, 4-{5-[7-Trifluoromethyl-5-(4-trifluoromethyl-phenyl)-pyrazolo[1,5-a]pyrimidin-3-yl]-[1,2,4]oxadiazol-3-yl}-pyridin-2-ylamine]",277 °C
11,"Nc1cc(-c2noc(-c3cnn4ccc(-c5ccc(C(F)(F)F)cc5)nc34)n2)ccn1 [Example 59, 4-{5-[5-(4-Trifluoromethyl-phenyl)-pyrazolo[1,5-a]pyrimidin-3-yl]-[1,2,4]oxadiazol-3-yl}-pyridin-2-ylamine]",250 °C
12,"Cc1cc(-c2ccc(C(F)(F)F)cc2)cn2c(-c3nc(-c4ccnc(N)c4)no3)cnc12 [Example 60, 4-{5-[8-Methyl-6-(4-trifluoromethyl-phenyl)-imidazo[1,2-a]pyridin-3-yl]-[1,2,4]oxadiazol-3-yl}-pyridin-2-ylamine]",264 °C
13,"Nc1cc(-c2noc(-c3cnc4ccc(-c5ccc(C(F)(F)F)cc5)cn34)n2)ccn1 [Example 61, 4-{5-[6-(4-Trifluoromethyl-phenyl)-imidazo[1,2-a]pyridin-3-yl]-[1,2,4]oxadiazol-3-yl}-pyridin-2-ylamine]",280 °C
14,"Nc1ccc(-c2noc(-c3cnn4c(C(F)(F)F)cc(-c5ccc(Cl)cc5)nc34)n2)cn1 [Example 62, 5-{5-[5-(4-Chloro-phenyl)-7-trifluoromethyl-pyrazolo[1,5-a]pyrimidin-3-yl]-[1,2,4]oxadiazol-3-yl}-pyridin-2-ylamine]",253 °C
15,"Nc1ccc(-c2noc(-c3cnn4c(C(F)F)cc(-c5ccc(Cl)cc5)nc34)n2)cn1 [Example 63, 5-{5-[5-(4-Chloro-phenyl)-7-difluoromethyl-pyrazolo[1,5-a]pyrimidin-3-yl]-[1,2,4]oxadiazol-3-yl}-pyridin-2-ylamine]",254 °C
16,"Cc1cc(-c2cc(C(F)(F)F)n3ncc(-c4nc(-c5ccc(N)nc5)no4)c3n2)ccc1Cl [Example 64, 5-{5-[5-(4-Chloro-3-methyl-phenyl)-7-trifluoromethyl-pyrazolo[1,5-a]pyrimidin-3-yl]-[1,2,4]oxadiazol-3-yl}-pyridin-2-ylamine]",262 °C

row,SMILES,melting point
1,"Cc1cc(-c2cc(C(F)F)n3ncc(-c4nc(-c5ccc(N)nc5)no4)c3n2)ccc1C(F)(F)F [Example 65, 5-{5-[7-Difluoromethyl-5-(3-methyl-4-trifluoromethyl-phenyl)-pyrazolo[1,5-a]pyrimidin-3-yl]-[1,2,4]oxadiazol-3-yl}-pyridin-2-ylamine]",231 °C
2,"Nc1ccc(-c2noc(-c3cnn4c(C(F)F)cc(-c5ccc(Cl)c(Cl)c5)nc34)n2)cn1 [Example 66, 5-{5-[5-(3,4-Dichloro-phenyl)-7-difluoromethyl-pyrazolo[1,5-a]pyrimidin-3-yl]-[1,2,4]oxadiazol-3-yl}-pyridin-2-ylamine]",279 °C
3,"Nc1ccc(-c2noc(-c3cnn4c(C(F)(F)F)cc(-c5ccc(Cl)c(Cl)c5)nc34)n2)cn1 [Example 67, 5-{5-[5-(3,4-Dichloro-phenyl)-7-trifluoromethyl-pyrazolo[1,5-a]pyrimidin-3-yl]-[1,2,4]oxadiazol-3-yl}-pyridin-2-ylamine]",289 °C
4,"CCOc1cc(-c2cc(C(F)F)n3ncc(-c4nc(-c5ccc(N)nc5)no4)c3n2)ccc1C(F)(F)F [Example 68, 5-{5-[7-Difluoromethyl-5-(3-ethoxy-4-trifluoromethyl-phenyl)-pyrazolo[1,5-a]pyrimidin-3-yl]-[1,2,4]oxadiazol-3-yl}-pyridin-2-ylamine]",250 °C
5,"CCOc1cc(-c2cc(C(F)(F)F)n3ncc(-c4nc(-c5ccc(N)nc5)no4)c3n2)ccc1C(F)(F)F [Example 69, 5-{5-[5-(3-Ethoxy-4-trifluoromethyl-phenyl)-7-trifluoromethyl-pyrazolo[1,5-a]pyrimidin-3-yl]-[1,2,4]oxadiazol-3-yl}-pyridin-2-ylamine]",263 °C
6,"Nc1ccc(-c2noc(-c3cnn4c(C(F)(F)F)cc(-c5ccc(C(F)(F)F)c(OCC(F)(F)F)c5)nc34)n2)cn1 [Example 70, 5-(5-{5-[3-(2,2,2-Trifluoro-ethoxy)-4-trifluoromethyl-phenyl]-7-trifluoromethyl-pyrazolo[1,5-a]pyrimidin-3-yl}-[1,2,4]oxadiazol-3-yl)-pyridin-2-ylamine]",284 °C
7,"Nc1ccc(-c2noc(-c3cnn4c(C(F)F)cc(-c5ccc(C(F)(F)F)c(OCC(F)(F)F)c5)nc34)n2)cn1 [Example 71, 5-(5-{7-Difluoromethyl-5-[3-(2,2,2-trifluoro-ethoxy)-4-trifluoromethyl-phenyl]-pyrazolo[1,5-a]pyrimidin-3-yl}-[1,2,4]oxadiazol-3-yl)-pyridin-2-ylamine]",285 °C
8,"Nc1ccc(-c2noc(-c3cnn4c(C(F)F)cc(-c5ccc(C(F)(F)F)c(Cl)c5)nc34)n2)cn1 [Example 72, 5-{5-[5-(3-Chloro-4-trifluoromethyl-phenyl)-7-difluoromethyl-pyrazolo[1,5-a]pyrimidin-3-yl]-[1,2,4]oxadiazol-3-yl}-pyridin-2-ylamine]",252 °C
9,"Nc1ccc(-c2noc(-c3cnn4c(C(F)(F)F)cc(-c5ccc(C(F)(F)F)c(Cl)c5)nc34)n2)cn1 [Example 73, 5-{5-[5-(3-Chloro-4-trifluoromethyl-phenyl)-7-trifluoromethyl-pyrazolo[1,5-a]pyrimidin-3-yl]-[1,2,4]oxadiazol-3-yl}-pyridin-2-ylamine]",234 °C
10,"Nc1ccc(-c2noc(-c3cnn4c(C(F)F)cc(-c5ccc(C(F)(F)F)c(F)c5)nc34)n2)cn1 [Example 74, 5-{5-[7-Difluoromethyl-5-(3-fluoro-4-trifluoromethyl-phenyl)-pyrazolo[1,5-a]pyrimidin-3-yl]-[1,2,4]oxadiazol-3-yl}-pyridin-2-ylamine]",242 °C
11,"Nc1ccc(-c2noc(-c3cnn4c(C(F)(F)F)cc(-c5ccc(C(F)(F)F)c(F)c5)nc34)n2)cn1 [Example 75, 5-{5-[5-(3-Fluoro-4-trifluoromethyl-phenyl)-7-trifluoromethyl-pyrazolo[1,5-a]pyrimidin-3-yl]-[1,2,4]oxadiazol-3-yl}-pyridin-2-ylamine]",233 °C
12,"Nc1ccc(-c2noc(-c3cnn4c(C(F)(F)F)cc(-c5ccc(F)c(F)c5)nc34)n2)cn1 [Example 76, 5-{5-[5-(3,4-Difluoro-phenyl)-7-trifluoromethyl-pyrazolo[1,5-a]pyrimidin-3-yl]-[1,2,4]oxadiazol-3-yl}-pyridin-2-ylamine]",262 °C
13,"Nc1ncc(-c2noc(-c3cnn4c(C(F)(F)F)cc(-c5ccc(F)c(F)c5)nc34)n2)cn1 [Example 78, 5-{5-[5-(3,4-Difluoro-phenyl)-7-trifluoromethyl-pyrazolo[1,5-a]pyrimidin-3-yl]-[1,2,4]oxadiazol-3-yl}-pyrimidin-2-ylamine]",268 °C
14,"Nc1ncc(-c2noc(-c3cnn4c(C(F)(F)F)cc(-c5ccc(C(F)(F)F)c(F)c5)nc34)n2)cn1 [Example 79, 5-{5-[5-(3-Fluoro-4-trifluoromethyl-phenyl)-7-trifluoromethyl-pyrazolo[1,5-a]pyrimidin-3-yl]-[1,2,4]oxadiazol-3-yl}-pyrimidin-2-ylamine]",270 °C
15,"Nc1ncc(-c2noc(-c3cnn4c(C(F)(F)F)cc(-c5ccc(C(F)(F)F)c(Cl)c5)nc34)n2)cn1 [Example 80, 5-{5-[5-(3-Chloro-4-trifluoromethyl-phenyl)-7-trifluoromethyl-pyrazolo[1,5-a]pyrimidin-3-yl]-[1,2,4]oxadiazol-3-yl}-pyrimidin-2-ylamine]",279 °C
